In ChEMBL document CHEMBL5042503, “"Clickable" Albumin Binders for Modulating the Tumor Uptake of Targeted Radiopharmaceuticals” (J Med Chem, 2022):

Columns and labels:
Albumin [1] = molecular target: T1, Albumin (Homo sapiens, UniProt P02768); assay: Binding affinity to human serum albumin assessed as dissociation constant and measured after 5 mins by fluorescence based competition assay
Albumin [2] = molecular target: T1, Albumin; assay: Binding affinity to human serum albumin assessed as dissociation constant and measured after 5 mins by MST assay
[3] = Lipophilicity, logD of compound at pH 7.4 under shaking condition by HPLC analysis; assay type: physicochemical; details: buffer
Albumin [4] = molecular target: T1, Albumin; assay: Binding affinity to human serum albumin assessed as dissociation constant by isothermal titration calorimetry
Albumin [5] = molecular target: T1, Albumin; assay: Binding affinity to human serum albumin assessed as dissociation constant using N-alpha-(6-FAM)-N-epsilon-(4-Iodophenylbutanoyl)-D-lysine as substrate and measured after 5 mins by fluorescence based competition assay
[6] = molecular target: Somatostatin receptor type 2 (Mus musculus) (UniProt P30875); assay: Binding affinity to mouse SST2 expressed in mouse pheochromocytoma cells assessed as maximum binding capacity for 1 hr by Nanodrop spectrophotometric analysis; assay type: cell-based; details: Pheochromocytoma cell
Sequence of Somatostatin receptor type 2 (Mus musculus) (P30875 whole entry): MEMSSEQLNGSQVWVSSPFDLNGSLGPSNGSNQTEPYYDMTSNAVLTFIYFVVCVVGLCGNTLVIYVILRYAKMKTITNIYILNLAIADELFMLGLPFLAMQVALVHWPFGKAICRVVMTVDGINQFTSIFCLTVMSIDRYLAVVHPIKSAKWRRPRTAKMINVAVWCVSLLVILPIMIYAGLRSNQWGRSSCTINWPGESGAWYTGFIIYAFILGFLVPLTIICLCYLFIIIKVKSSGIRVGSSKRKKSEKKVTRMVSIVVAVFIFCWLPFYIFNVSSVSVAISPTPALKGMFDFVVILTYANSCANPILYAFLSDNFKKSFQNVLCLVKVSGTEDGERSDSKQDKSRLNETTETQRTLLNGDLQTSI

T1 sequence (P02768 whole entry): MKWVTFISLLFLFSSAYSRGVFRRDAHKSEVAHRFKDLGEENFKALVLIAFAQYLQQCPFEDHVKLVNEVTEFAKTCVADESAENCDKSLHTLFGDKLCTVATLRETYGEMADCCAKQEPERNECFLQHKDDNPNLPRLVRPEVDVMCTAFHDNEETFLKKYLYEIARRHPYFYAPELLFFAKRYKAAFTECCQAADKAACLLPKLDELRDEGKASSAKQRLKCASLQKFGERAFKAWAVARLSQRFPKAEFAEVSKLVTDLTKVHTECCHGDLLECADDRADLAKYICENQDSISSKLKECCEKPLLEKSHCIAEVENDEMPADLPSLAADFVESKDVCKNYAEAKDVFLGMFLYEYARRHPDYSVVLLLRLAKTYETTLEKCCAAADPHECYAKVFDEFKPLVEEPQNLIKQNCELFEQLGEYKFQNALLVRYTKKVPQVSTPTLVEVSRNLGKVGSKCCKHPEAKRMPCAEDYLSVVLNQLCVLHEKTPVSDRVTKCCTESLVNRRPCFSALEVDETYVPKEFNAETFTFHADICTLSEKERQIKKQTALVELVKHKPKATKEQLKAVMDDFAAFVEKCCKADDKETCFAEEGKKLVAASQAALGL

Kd (Albumin [1]) [µM] | Molecule | also measured
1.2 | [N-]=[N+]=Nc1ccc(C(=O)N[C@H](CCCCNC(=O)CCCc2ccc(I)cc2)C(=O)O)cc1 | Kd (Albumin [2]): 2.6 µM
8 | [N-]=[N+]=NCCCCC(=O)N[C@H](CCCCNC(=O)CCCc1ccc(I)cc1)C(=O)O | 
80 | NC(=O)[C@H](CCC(=O)O)NC(=O)CCCc1ccc(I)cc1 | 
8 | O=C(O)CN1CCN(CC(=O)O)CCN(C(CCC(=O)N[C@@H](CCCCNC(=O)CCCc2ccc(I)cc2)C(=O)O)C(=O)O)CC1 (stereo not given in full) | 
3.5 | [N-]=[N+]=Nc1ccc(C(=O)N[C@@H](CCCCNC(=O)CCCc2ccc(Cl)cc2)C(=O)O)cc1 | 
100 | NC(=O)[C@H](CC(=O)O)NC(=O)CCCc1ccc(I)cc1 | 
7.3 | C#CCCC(=O)N[C@H](CCCCNC(=O)CCCc1ccc(I)cc1)C(=O)O | 
4 | CC(C)Cc1ccc(C(C)C(=O)NCCCC[C@H](NC(=O)c2ccc(N=[N+]=[N-])cc2)C(=O)O)cc1 (stereo not given in full) | 
2 | [N-]=[N+]=Nc1ccc(C(=O)N[C@@H](CCCCNC(=O)CCCc2ccc(Br)cc2)C(=O)O)cc1 | 
4.1 | [N-]=[N+]=Nc1ccc(C(=O)N[C@@H](CCCCNC(=O)CCCc2ccc(C(F)(F)F)cc2)C(=O)O)cc1 | 
0.36 | [N-]=[N+]=Nc1ccc(C(=O)N[C@@H](CCCCNC(=O)CCCc2ccc(I)cc2)C(=O)O)cc1 | logD [3]: 1.75
70 | CC(=O)N[C@@H](CCCCNC(=O)CCCc1ccc(I)cc1)C(N)=O | 
7 | CC(=O)N[C@H](CCCCNC(=O)CCCc1ccc(I)cc1)C(=O)O | Kd (Albumin [4]): 3.2 µM; Kd (Albumin [2]): 8 µM
110 | COC(=O)[C@H](CCCCNC(=O)CCCc1ccc(I)cc1)NC(C)=O | 
 | [N-]=[N+]=Nc1ccc(C(=O)N[C@@H](CCCCNC(=O)CCCc2ccc(I)cc2)C(N)=O)cc1 | logD [3]: 3.13
 | O=C(CCCc1ccc(I)cc1)NCCCC[C@@H](NC(=O)c1ccc(C(=O)O)c(-c2c3ccc(=O)cc-3oc3cc(O)ccc23)c1)C(=O)O | Kd (Albumin [5]): 0.23 µM
 | [64Cu]Cu-DOTA-TATE | Bmax [6]: 779 fmol/mg
0.34 | C#Cc1ccc(C(=O)N[C@@H](CCCCNC(=O)CCCc2ccc(I)cc2)C(=O)O)cc1 | 
26 | [N-]=[N+]=Nc1ccc(C(=O)N[C@@H](CCCCNC(=O)CCCc2ccc(F)cc2)C(=O)O)cc1 | 
 | [64Cu]Cu-NODAGA-TATE | Bmax [6]: 383 fmol/mg
36 | [N-]=[N+]=Nc1ccc(C(=O)N[C@@H](CCCCNC(=O)CCCc2ccccc2)C(=O)O)cc1 | 
6 | [N-]=[N+]=NCCCCC(=O)N[C@@H](CCCCNC(=O)CCCc1ccc(I)cc1)C(=O)O | 
3 | Cc1ccc(CCCC(=O)NCCCC[C@H](NC(=O)c2ccc(N=[N+]=[N-])cc2)C(=O)O)cc1 | 
3.2 | CC(=O)N[C@@H](CCCCNC(=O)CCCc1ccc(I)cc1)C(=O)O | Kd (Albumin [4]): 9 µM
4 | O=C(CCCc1ccc(I)cc1)NCCCC[C@H](C(=O)O)n1cc(-c2ccccc2)nn1 | 
